Experimental data published in publication PMC9027111, “Morphing Natural Product Platensimycin via Heck, Sonogashira, and One-Pot Sonogashira/Cycloaddition Reactions to Produce Antibiotics with In Vivo Activity” (Antibiotics, 2022).
In brackets after ≈: the same amount, converted by molar mass. Read-outs that look alike come from different tables or passages of the source.

Legend:
[1] = test system: S. aureus ATCC 29213; assay: MIC determination (LB agar dilution), S. aureus ATCC 29213; assay type: cell-based; settings: Staphylococcus aureus, ATCC29213, at least two replicates
Experimental: (§1) All of the tested compounds were prepared to different concentrations with methanol, and 150 μL of the respective methanol solution was used to mix with 15 mL LB (Luria–Bertani) medium with 1% agar in each Petri dish. Linezolid and PTM were used as reference compounds for comparison. In vitro bioassay for compounds was carried out using clinical strains of S. aureus, E. coli, and Klebsilla pneumoniae. The bacteria were cultivated in LB medium and incubated for 16 h at 37 °C, 250 rpm. The resulting bacteria were diluted to approximate 0.25 at OD600, which were further diluted 10_4-fold. The diluted bacteria (2 μL) were added to Petri dish containing the respective compounds. The resulting Petri dishes were incubated for 16 h at 37 °C. The determination of MIC is the concentration of Petri dishes with no visible growth of bacteria.

[2] = test system: MSSA 1; assay: MIC determination (LB agar dilution), clinical MSSA strain 1; assay type: cell-based; settings: Staphylococcus aureus, at least two replicates
Experimental: as §1

[3] = test system: MSSA 2; assay: MIC determination (LB agar dilution), clinical MSSA strain 2; assay type: cell-based; settings: Staphylococcus aureus, at least two replicates
Experimental: as §1

[4] = test system: MRSA 3; assay: MIC determination (LB agar dilution), clinical MRSA strain 3; assay type: cell-based; settings: Staphylococcus aureus, at least two replicates
Experimental: as §1

[5] = test system: MRSA 4; assay: MIC determination (LB agar dilution), clinical MRSA strain 4; assay type: cell-based; settings: Staphylococcus aureus, at least two replicates
Experimental: as §1

[6] = Metabolic stability assay in pooled human liver microsomes; assay type: in vitro ADME; settings: pH 7.4, 37 °C, NADPH, read-out: Half-Life in Human Hepatic Microsomes
Experimental: Each compound was incubated in duplicate with pooled human liver microsomes at 37 °C. The tested compounds were pre-incubated with pooled human liver microsomes in phosphate buffer (pH 7.4) for 5 min in a shaking water bath at 37 °C. The reaction was initiated by adding a NADPH-generating system and incubated for 0, 15, 30, 45, and 60 min. The reaction was stopped by transferring the incubation mixture to CH3CN/MeOH. Samples were then mixed and centrifuged. Supernatants were used for HPLC–MS/MS analysis. Data were calculated as percent parent compounds remaining by assuming zero-minute time point peak area ratio (analyte/IS) as 100% and dividing remaining time point peak area ratios by the zero-minute time point peak area ratio. Data were subjected to fit a first-order decay model to calculate both the slope and half-life.

[7] = Plasma protein binding by equilibrium dialysis; assay type: in vitro ADME; settings: 37 °C; for Plasma Protein Binding Bound %: 5 μM, 6 h; for fraction unbound at 6 h, 5 μM: plasma, read-out: Plasma Protein Binding Free %
Experimental: Equilibrium dialysis was used to determine the plasma protein binding. All of the test compounds were treated in triplicate by RED Rapid Equilibrium Dialysis Device (Thermo Scientific, Waltham, MA, USA). In brief, the initial compound concentration (5 μM) in the plasma chamber was first set, followed by the addition of phosphate buffered saline (PBS) to the receiver chamber. The Equilibrium Dialysis Device was allowed to shake for 6 h in a 37 °C incubator. Then, 25 μL solution was sampled from the plasma and PBS chambers, respectively, and they were diluted with either blank PBS or plasma to achieve a 1:1 ratio of plasma: PBS for all samples. The concentrations of the tested compounds in the plasma and PBS chambers were determined by LC–MS/MS. The fraction bound was calculated as ([plasma]—[PBS])/[plasma].

[8] = test system: MRSA; assay type: in vivo; settings: n = 5; for survival of infected mice: tracked 7 days
[9] = design: method as in PMID 31244223; settings: pooled human liver microsomes; previously reported ref 14; cited from earlier work
[10] = design: method as in PMID 31244223; settings: previously reported ref 14; cited from earlier work
[11] = 10 mg/kg intraperitoneal at 1 h and 5 h after infection

| SMILES | MIC [1] | MIC [2] | MIC [3] | MIC [4] | MIC [5] | half-life [6] | Plasma Protein Binding Bound % [7] | fraction unbound at 6 h, 5 μM [7] | mice died within 24 h [8, 11] | survival of infected mice [8, 11] | Half-Life in Human Hepatic Microsomes [9] | Plasma Protein Binding Free % [10] | Plasma Protein Binding Bound % [10] | survival of infected mice ([8]; 50 mg/kg intraperitoneal at 1 h and 5 h after infection) |
| --- | --- | --- | --- | --- | --- | --- | --- | --- | --- | --- | --- | --- | --- | --- |
| CC12CC34C=C(I)C(=O)C(C)(CCC(=O)Nc5c(O)ccc(C(=O)O)c5O)C3C(CC1C4)O2 (stereo not drawn) [compound 4, 6-iodo PTM] | 1 µg/mL (≈ 1.76 µM) | 1 µg/mL (≈ 1.76 µM) | 1 µg/mL (≈ 1.76 µM) | 1 µg/mL (≈ 1.76 µM) | 1 µg/mL (≈ 1.76 µM) | 58 min | 87% | 0.13 | 40% | – | – | – | – | – |
| CC12C[C@@]34C=CC(=O)[C@@](C)(CCC(=O)Nc5c(O)ccc(C(=O)O)c5O)C3[C@H](CC1C4)O2 (stereo partly drawn) [PTM, Platensimycin] | 1 µg/mL (≈ 2.27 µM) | 1 µg/mL (≈ 2.27 µM) | 1 µg/mL (≈ 2.27 µM) | 1 µg/mL (≈ 2.27 µM) | 1 µg/mL (≈ 2.27 µM) | – | – | – | – | died after MRSA infection within 24 h | 51 min | 34% | – | – |
| CCSC1CC(=O)C(C)(CCC(=O)Nc2c(O)ccc(C(=O)O)c2O)C2C3CC4CC12CC4(C)O3 (stereo not drawn) [1a, PTM-2t] | – | – | – | – | – | – | – | – | – | – | 22 min | 65% | 35% | – |
| CN[C@H](CC(C)C)C(=O)N[C@H]1C(=O)N[C@@H](CC(N)=O)C(=O)N[C@H]2C(=O)N[C@H]3C(=O)N[C@H](C(=O)N[C@H](C(=O)O)c4cc(O)cc(O)c4-c4cc3ccc4O)[C@H](O)c3ccc(c(Cl)c3)Oc3cc2cc(c3O[C@@H]2O[C@H](CO)[C@@H](O)[C@H](O)[C@H]2O[C@H]2C[C@](C)(N)[C@H](O)[C@H](C)O2)Oc2ccc(cc2Cl)[C@H]1O [vancomycin, reference compound] | – | – | – | – | – | – | – | – | – | – | – | – | – | 100% |
| CC12CC34C=C(C#Cc5cccc(F)c5)C(=O)C(C)(CCC(=O)Nc5c(O)ccc(C(=O)O)c5O)C3C(CC1C4)O2 (stereo not drawn) [B8] | 1 µg/mL (≈ 1.79 µM) | 1 µg/mL (≈ 1.79 µM) | 1 µg/mL (≈ 1.79 µM) | 1 µg/mL (≈ 1.79 µM) | 1 µg/mL (≈ 1.79 µM) | 96 min | 99.4% | 0.006 | 40% | – | – | – | – | – |
| CC(C)NC(=O)C=CC1=CC23CC4CC(OC4(C)C2)C3C(C)(CCC(=O)Nc2c(O)ccc(C(=O)O)c2O)C1=O (stereo not drawn) [A8] | 32 µg/mL (≈ 57.9 µM) | 32 µg/mL (≈ 57.9 µM) | 32 µg/mL (≈ 57.9 µM) | 32 µg/mL (≈ 57.9 µM) | 32 µg/mL (≈ 57.9 µM) | – | – | – | – | – | – | – | – | – |

Continued, in another order:

| MIC [1] | MIC [2] | MIC [3] | MIC [4] | MIC [5] | SMILES | half-life [6] | Plasma Protein Binding Bound % [7] | fraction unbound at 6 h, 5 μM [7] | mice died within 24 h [8, 11] | survival of infected mice [8, 11] | Half-Life in Human Hepatic Microsomes [9] | Plasma Protein Binding Free % [10] | Plasma Protein Binding Bound % [10] | survival of infected mice ([8]; 50 mg/kg intraperitoneal at 1 h and 5 h after infection) |
| --- | --- | --- | --- | --- | --- | --- | --- | --- | --- | --- | --- | --- | --- | --- |
| 32 µg/mL (≈ 48.5 µM) | 32 µg/mL (≈ 48.5 µM) | 32 µg/mL (≈ 48.5 µM) | 32 µg/mL (≈ 48.5 µM) | 32 µg/mL (≈ 48.5 µM) | CC(=O)C1=C(C)OC(Cc2ccc(F)cc2)=C2C(=O)C(C)(CCC(=O)Nc3c(O)ccc(C(=O)O)c3O)C3C4CC5CC3(CC5(C)O4)C12 (stereo not drawn) [C6] | 17 min | 99.6% | 0.004 | – | – | – | – | – | – |
| > 64 µg/mL | > 64 µg/mL | > 64 µg/mL | > 64 µg/mL | > 64 µg/mL | CCCCCCCCCCCCCCCCCCOC(=O)C=CC1=CC23CC4CC(OC4(C)C2)C3C(C)(CCC(=O)Nc2c(O)ccc(C(=O)O)c2O)C1=O (stereo not drawn) [A5] | 76 min | 99.2% | 0.008 | – | – | – | – | – | – |
| 1 µg/mL (≈ 1.87 µM) | 1 µg/mL (≈ 1.87 µM) | 1 µg/mL (≈ 1.87 µM) | 1 µg/mL (≈ 1.87 µM) | 1 µg/mL (≈ 1.87 µM) | CCCCCC#CC1=CC23CC4CC(OC4(C)C2)C3C(C)(CCC(=O)Nc2c(O)ccc(C(=O)O)c2O)C1=O (stereo not drawn) [B5] | – | – | – | – | – | – | – | – | – |
| 8 µg/mL (≈ 14.4 µM) | 4 µg/mL (≈ 7.2 µM) | 4 µg/mL (≈ 7.2 µM) | 8 µg/mL (≈ 14.4 µM) | 4 µg/mL (≈ 7.2 µM) | Cc1ccc(C#CC2=CC34CC5CC(OC5(C)C3)C4C(C)(CCC(=O)Nc3c(O)ccc(C(=O)O)c3O)C2=O)cc1 (stereo not drawn) [B10] | – | – | – | – | – | – | – | – | – |
| 8 µg/mL (≈ 13.4 µM) | 8 µg/mL (≈ 13.4 µM) | 8 µg/mL (≈ 13.4 µM) | 8 µg/mL (≈ 13.4 µM) | 8 µg/mL (≈ 13.4 µM) | CCCCc1ccc(C#CC2=CC34CC5CC(OC5(C)C3)C4C(C)(CCC(=O)Nc3c(O)ccc(C(=O)O)c3O)C2=O)cc1 (stereo not drawn) [B12] | – | – | – | – | – | – | – | – | – |
